Experimental data from patent US9758529B2, “Fused dihydro-4H-pyrazolo[5,1-C][1,4]oxazinyl compounds and analogs for treating CNS disorders” (Sunovion Pharmaceuticals Inc., priority 2015, dated 2017).

Tested on: mice
Test: Neuropharmacological Assay (SmartCube)
Format: in vivo
Settings: i.p. 15 min before behavioral test; 3 doses, most efficacious dose(s) presented

Row | SMILES | AD: ADHD (probability of class match) | AG: analgesic (probability of class match) | AX: anxiolytic (probability of class match) | CE: cognitive enhancer (probability of class match) | DP: anti-depressant (probability of class match) | HA: hallucinogen (probability of class match) | MS: mood stabilizer (probability of class match) | PS: anti-psychotic (probability of class match) | SD: sedative hypnotic (probability of class match) | UN: uncharacterized CNS activity (probability of class match) | XG: anxiogenic (probability of class match)
1 | CN1CC(C2OCCn3nc4ccccc4c32)C1.Cl (centres unmarked) [Compound 67, 3-(3,4-dihydro-1H-[1,4]oxazino[4,3-b]indazol-1-yl)-1-methylazetidin-1-ium chloride] | + (LOQ≦ + <5%) | + (LOQ≦ + <5%) | ++ (5%≦ ++ <25%) | + (LOQ≦ + <5%) | ++ (5%≦ ++ <25%) | + (LOQ≦ + <5%) | + (LOQ≦ + <5%) | + (LOQ≦ + <5%) | + (LOQ≦ + <5%) | + (LOQ≦ + <5%) | + (LOQ≦ + <5%)
2 | CNC[C@@H]1OCCn2nc3ccsc3c21 [Compound 68, (S)-1-(6,7-dihydro-9H-thieno[3′,2′:3,4]pyrazolo[5,1-c][1,4]oxazin-9-yl)-N-methylmethanamine] | ++ (5%≦ ++ <25%) | ++ (5%≦ ++ <25%) | ++ (5%≦ ++ <25%) | + (LOQ≦ + <5%) | ++++ (50%≦ ++++) | ++++ (50%≦ ++++) | + (LOQ≦ + <5%) | + (LOQ≦ + <5%) | ++ (5%≦ ++ <25%) | ++ (5%≦ ++ <25%) | + (LOQ≦ + <5%)
3 | CNC[C@H]1OCCn2nc3ccsc3c21 [Compound 69, (R)-1-(6,7-dihydro-9H-thieno[3′,2′:3,4]pyrazolo[5,1-c][1,4]oxazin-9-yl)-N-methylmethanamine] | + (LOQ≦ + <5%) | + (LOQ≦ + <5%) | ++ (5%≦ ++ <25%) | + (LOQ≦ + <5%) | ++ (5%≦ ++ <25%) | + (LOQ≦ + <5%) | + (LOQ≦ + <5%) | + (LOQ≦ + <5%) | + (LOQ≦ + <5%) | ++ (5%≦ ++ <25%) | + (LOQ≦ + <5%)
4 | CNCC1OCCn2nc3ccccc3c21 (centres unmarked) [Compound I-4, (3,4-dihydro-1H-[1,4]oxazino[4,3-b]indazol-1-yl)-N-methylmethanamine] | ++ (5%≦ ++ <25%) | + (LOQ≦ + <5%) | +++ (25%≦ +++ <50%) | + (LOQ≦ + <5%) | ++++ (50%≦ ++++) | ++ (5%≦ ++ <25%) | + (LOQ≦ + <5%) | + (LOQ≦ + <5%) | ++ (5%≦ ++ <25%) | + (LOQ≦ + <5%) | + (LOQ≦ + <5%)
